Data published in ChEMBL document CHEMBL1201862, “PubChem BioAssay data set” (2004).
Activity calls are given as the source filed them.

How the values were obtained:
Assay type in all cases: functional
[1] = target: RAC-alpha serine/threonine-protein kinase (Homo sapiens, UniProt P31749);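 further: AKT1 affinity measured as one member of a kinome-wide kinase profiling panel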
[2] = target: Casein kinase I isoform alpha (Homo sapiens, UniProt P48729)
[3] = target: Cyclin-dependent kinase 7 (Homo sapiens, UniProt P50613);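 further: value comes from a kinome-wide kinase profiling panel in which CDK7 is one member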
[4] = target: Serine/threonine-protein kinase N2 (Homo sapiens, UniProt Q16513)
[5] = target: Phosphorylase b kinase gamma catalytic chain, liver/testis isoform (Homo sapiens, UniProt P15735);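 further: PHKG2 measured as one member of a kinome-wide kinase panel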
Aurora kinase B = Aurora kinase B (Homo sapiens, UniProt Q96GD4)
[6] = target: Mitogen-activated protein kinase 13 (Homo sapiens, UniProt O15264)
[7] = target: Calcium/calmodulin-dependent protein kinase type II subunit delta (Homo sapiens, UniProt Q13557)
[8] = target: Homeodomain-interacting protein kinase 4 (Homo sapiens, UniProt Q8NE63)
[9] = target: Calcium/calmodulin-dependent protein kinase type 1 (Homo sapiens, UniProt Q14012)
[10] = target: Serine/threonine-protein kinase Chk1 (Homo sapiens, UniProt O14757);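 further: measured as one member of a kinome-wide kinase profiling panel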
[11] = target: Glycogen synthase kinase-3 alpha (Homo sapiens, UniProt P49840);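 further: GSK3A result taken from a broad kinome-wide kinase panel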
[12] = target: STE20-like serine/threonine-protein kinase (Homo sapiens, UniProt Q9H2G2)
[13] = target: Dual specificity tyrosine-phosphorylation-regulated kinase 4 (Homo sapiens, UniProt Q9NR20)
[14] = target: Serine/threonine-protein kinase Nek2 (Homo sapiens, UniProt P51955)
[15] = target: Serine/threonine-protein kinase D2 (Homo sapiens, UniProt Q9BZL6);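 further: measured against PRKD2 as one member of a kinome-wide kinase profiling panel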
Insulin receptor = Insulin receptor (Homo sapiens, UniProt P06213);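 further: insulin receptor kinase tested as one member of a kinome-wide kinase panel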
[16] = target: G protein-coupled receptor kinase 5 (Homo sapiens, UniProt P34947); assay: Navigating the Kinome. Panel member name: GPRK5
[17] = target: T1, Interleukin-1 receptor-associated kinase 4 (Homo sapiens, UniProt Q9NWZ3)
T1 sequence (Q9NWZ3 whole entry): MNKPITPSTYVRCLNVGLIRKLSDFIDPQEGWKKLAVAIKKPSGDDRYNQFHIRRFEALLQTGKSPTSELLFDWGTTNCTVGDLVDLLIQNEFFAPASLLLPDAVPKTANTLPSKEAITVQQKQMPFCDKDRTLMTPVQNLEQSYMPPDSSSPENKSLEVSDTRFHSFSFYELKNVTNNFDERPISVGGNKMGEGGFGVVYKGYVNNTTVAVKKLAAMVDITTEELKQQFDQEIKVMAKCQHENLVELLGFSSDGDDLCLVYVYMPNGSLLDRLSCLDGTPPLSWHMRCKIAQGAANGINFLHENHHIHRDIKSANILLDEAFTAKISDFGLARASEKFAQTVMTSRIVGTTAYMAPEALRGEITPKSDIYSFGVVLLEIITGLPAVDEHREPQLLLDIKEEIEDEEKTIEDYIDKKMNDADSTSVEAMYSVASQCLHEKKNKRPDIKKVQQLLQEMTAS

[18] = target: Serine/threonine-protein kinase pim-1 (Homo sapiens, UniProt P11309)
[19] = target: Mitogen-activated protein kinase 1 (Homo sapiens, UniProt P28482)
[20] = target: Glycogen synthase kinase-3 beta (Homo sapiens, UniProt P49841);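 further: value comes from a broad kinome profiling panel, with GSK3B as the panel member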
[21] = target: Cyclin-dependent kinase 1 (Homo sapiens, UniProt P06493);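 further: Kinome-wide panel profiling, with the target listed as panel member CDC2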
[22] = target: Dual specificity protein kinase CLK2 (Homo sapiens, UniProt P49760)
[23] = target: Mast/stem cell growth factor receptor Kit (Homo sapiens, UniProt P10721);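 further: KIT entry within a kinase panel assay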
[24] = target: Protein kinase C delta type (Homo sapiens, UniProt Q05655)
[25] = target: ALK tyrosine kinase receptor (Homo sapiens, UniProt Q9UM73);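 further: ALK tested as one member of a kinase panel screen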
[26] = target: Casein kinase I isoform delta (Homo sapiens, UniProt P48730);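 further: measured as one member (CSNK1D) of a kinome panel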
[27] = target: Casein kinase I isoform gamma-1 (Homo sapiens, UniProt Q9HCP0);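 further: measured as the CSNK1G1 member of a kinome profiling panel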
[28] = target: Serine/threonine-protein kinase TAO1 (Homo sapiens, UniProt Q7L7X3)
[29] = target: Mitogen-activated protein kinase kinase kinase 20 (Homo sapiens, UniProt Q9NYL2)
[30] = target: Mitogen-activated protein kinase 12 (Homo sapiens, UniProt P53778);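 further: measured as one member of a kinome-wide kinase profiling panel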
[31] = target: Serine/threonine-protein kinase 3 (Homo sapiens, UniProt Q13188);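 further: measured as one member of a kinome-wide kinase panel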
[32] = target: Protein kinase C iota type (Homo sapiens, UniProt P41743);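 further: measured within a kinome-wide kinase panel, PRKCI as panel member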
[33] = target: Serine/threonine-protein kinase BRSK1 (Homo sapiens, UniProt Q8TDC3);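 further: measured within a kinome-wide kinase panel, with the target listed as KIAA1811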
[34] = target: Serine/threonine-protein kinase PLK4 (Homo sapiens, UniProt O00444);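 further: PLK4 measured as one member of a kinome-wide kinase profiling panel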
[35] = target: Casein kinase II subunit alpha (Homo sapiens, UniProt P68400)
[36] = target: Fibroblast growth factor receptor 1 (Homo sapiens, UniProt P11362)
Misshapen-like kinase 1 = Misshapen-like kinase 1 (Homo sapiens, UniProt Q8N4C8);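 further: kinome panel screen with MINK as the panel member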
[37] = target: Serine/threonine-protein kinase D3 (Homo sapiens, UniProt O94806);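 further: determined within a kinase panel screen, with PRKCN as the panel member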
[38] = target: Mitogen-activated protein kinase kinase kinase kinase 2 (Homo sapiens, UniProt Q12851);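 further: measured as one member of a kinome-wide kinase panel, with MAP4K2 as the panel entry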
Mitogen-activated protein kinase kinase kinase kinase 2, sequence (Q12851 whole entry): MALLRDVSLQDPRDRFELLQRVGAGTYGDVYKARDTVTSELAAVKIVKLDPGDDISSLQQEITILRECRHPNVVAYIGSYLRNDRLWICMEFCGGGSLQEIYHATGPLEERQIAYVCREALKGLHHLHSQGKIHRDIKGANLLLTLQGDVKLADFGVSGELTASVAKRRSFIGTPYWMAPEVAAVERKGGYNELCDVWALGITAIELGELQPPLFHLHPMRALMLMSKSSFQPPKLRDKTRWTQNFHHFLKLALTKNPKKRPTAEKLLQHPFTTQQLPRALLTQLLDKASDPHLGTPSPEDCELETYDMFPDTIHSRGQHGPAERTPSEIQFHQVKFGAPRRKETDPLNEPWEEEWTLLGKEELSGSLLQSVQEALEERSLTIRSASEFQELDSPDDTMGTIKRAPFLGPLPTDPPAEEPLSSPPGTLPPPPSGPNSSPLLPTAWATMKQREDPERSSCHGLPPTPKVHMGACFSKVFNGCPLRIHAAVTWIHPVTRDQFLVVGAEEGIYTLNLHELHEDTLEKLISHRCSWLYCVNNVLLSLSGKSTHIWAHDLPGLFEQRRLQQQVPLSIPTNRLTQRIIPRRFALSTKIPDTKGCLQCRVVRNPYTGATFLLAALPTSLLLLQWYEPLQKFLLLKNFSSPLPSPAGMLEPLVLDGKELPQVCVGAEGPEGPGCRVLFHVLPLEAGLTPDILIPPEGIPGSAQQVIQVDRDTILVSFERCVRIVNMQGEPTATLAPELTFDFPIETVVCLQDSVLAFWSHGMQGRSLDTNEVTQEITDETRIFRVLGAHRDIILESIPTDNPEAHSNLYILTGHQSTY

Mitogen-activated protein kinase 1, sequence (P28482 whole entry): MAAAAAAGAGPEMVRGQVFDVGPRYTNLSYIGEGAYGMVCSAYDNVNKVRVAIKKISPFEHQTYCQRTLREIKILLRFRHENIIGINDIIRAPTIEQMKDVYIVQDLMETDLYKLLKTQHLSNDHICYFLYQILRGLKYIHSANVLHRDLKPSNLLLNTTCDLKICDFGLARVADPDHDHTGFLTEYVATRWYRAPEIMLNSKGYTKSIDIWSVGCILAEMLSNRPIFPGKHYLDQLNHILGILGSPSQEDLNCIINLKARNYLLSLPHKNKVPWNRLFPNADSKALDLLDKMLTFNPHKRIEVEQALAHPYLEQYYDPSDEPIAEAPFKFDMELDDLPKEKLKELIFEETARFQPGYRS
Insulin receptor, sequence (P06213 28-758 limits assumed): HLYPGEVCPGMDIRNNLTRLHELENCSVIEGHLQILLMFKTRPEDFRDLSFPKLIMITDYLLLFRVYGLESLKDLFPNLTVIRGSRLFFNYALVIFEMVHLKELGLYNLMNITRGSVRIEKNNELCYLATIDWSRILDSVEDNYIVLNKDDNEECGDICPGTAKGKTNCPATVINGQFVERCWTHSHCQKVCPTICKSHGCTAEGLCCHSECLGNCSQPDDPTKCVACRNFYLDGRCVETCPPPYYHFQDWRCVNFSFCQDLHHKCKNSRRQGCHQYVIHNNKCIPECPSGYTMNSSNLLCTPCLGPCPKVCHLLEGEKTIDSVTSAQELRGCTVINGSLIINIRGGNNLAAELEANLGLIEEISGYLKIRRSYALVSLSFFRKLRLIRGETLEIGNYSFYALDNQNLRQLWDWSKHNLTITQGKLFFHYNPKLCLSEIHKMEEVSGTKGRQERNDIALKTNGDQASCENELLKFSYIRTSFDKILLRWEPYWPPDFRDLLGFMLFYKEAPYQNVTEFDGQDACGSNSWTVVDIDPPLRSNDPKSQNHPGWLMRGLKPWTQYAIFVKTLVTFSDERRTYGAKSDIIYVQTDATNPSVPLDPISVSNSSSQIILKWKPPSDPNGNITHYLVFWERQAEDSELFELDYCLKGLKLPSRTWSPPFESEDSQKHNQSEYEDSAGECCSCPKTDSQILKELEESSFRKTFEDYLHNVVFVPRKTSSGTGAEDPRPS
Insulin receptor, sequence (P06213 763-1382 limits assumed): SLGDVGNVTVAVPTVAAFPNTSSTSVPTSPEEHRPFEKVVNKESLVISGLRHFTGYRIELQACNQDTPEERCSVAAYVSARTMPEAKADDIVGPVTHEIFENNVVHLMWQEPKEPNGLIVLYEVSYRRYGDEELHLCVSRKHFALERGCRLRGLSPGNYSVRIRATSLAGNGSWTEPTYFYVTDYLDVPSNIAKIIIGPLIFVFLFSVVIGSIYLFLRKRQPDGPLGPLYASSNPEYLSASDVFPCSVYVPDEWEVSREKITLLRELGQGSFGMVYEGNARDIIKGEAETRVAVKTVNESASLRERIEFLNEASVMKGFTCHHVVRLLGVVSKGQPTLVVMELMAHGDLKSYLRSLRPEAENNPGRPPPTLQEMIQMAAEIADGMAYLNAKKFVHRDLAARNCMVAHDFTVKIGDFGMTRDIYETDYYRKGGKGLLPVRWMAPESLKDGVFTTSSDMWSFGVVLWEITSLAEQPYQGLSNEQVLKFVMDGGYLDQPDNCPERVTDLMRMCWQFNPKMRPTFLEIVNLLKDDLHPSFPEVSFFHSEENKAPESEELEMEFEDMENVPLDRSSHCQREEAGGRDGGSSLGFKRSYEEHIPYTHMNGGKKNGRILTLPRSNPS
Glycogen synthase kinase-3 alpha, sequence (P49840 whole entry): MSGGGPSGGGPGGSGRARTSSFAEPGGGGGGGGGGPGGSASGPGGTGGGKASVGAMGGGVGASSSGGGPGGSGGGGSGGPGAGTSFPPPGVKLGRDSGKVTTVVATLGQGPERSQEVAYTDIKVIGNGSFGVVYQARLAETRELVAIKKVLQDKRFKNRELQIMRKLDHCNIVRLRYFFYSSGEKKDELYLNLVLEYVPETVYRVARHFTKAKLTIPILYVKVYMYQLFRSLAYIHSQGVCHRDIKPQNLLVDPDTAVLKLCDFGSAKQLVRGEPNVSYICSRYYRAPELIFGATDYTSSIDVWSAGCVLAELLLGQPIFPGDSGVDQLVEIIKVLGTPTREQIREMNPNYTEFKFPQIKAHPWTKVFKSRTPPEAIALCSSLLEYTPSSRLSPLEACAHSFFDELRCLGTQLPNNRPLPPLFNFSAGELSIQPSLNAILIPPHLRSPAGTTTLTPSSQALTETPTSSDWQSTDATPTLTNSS
Serine/threonine-protein kinase N2, sequence (Q16513 whole entry, canonical isoform): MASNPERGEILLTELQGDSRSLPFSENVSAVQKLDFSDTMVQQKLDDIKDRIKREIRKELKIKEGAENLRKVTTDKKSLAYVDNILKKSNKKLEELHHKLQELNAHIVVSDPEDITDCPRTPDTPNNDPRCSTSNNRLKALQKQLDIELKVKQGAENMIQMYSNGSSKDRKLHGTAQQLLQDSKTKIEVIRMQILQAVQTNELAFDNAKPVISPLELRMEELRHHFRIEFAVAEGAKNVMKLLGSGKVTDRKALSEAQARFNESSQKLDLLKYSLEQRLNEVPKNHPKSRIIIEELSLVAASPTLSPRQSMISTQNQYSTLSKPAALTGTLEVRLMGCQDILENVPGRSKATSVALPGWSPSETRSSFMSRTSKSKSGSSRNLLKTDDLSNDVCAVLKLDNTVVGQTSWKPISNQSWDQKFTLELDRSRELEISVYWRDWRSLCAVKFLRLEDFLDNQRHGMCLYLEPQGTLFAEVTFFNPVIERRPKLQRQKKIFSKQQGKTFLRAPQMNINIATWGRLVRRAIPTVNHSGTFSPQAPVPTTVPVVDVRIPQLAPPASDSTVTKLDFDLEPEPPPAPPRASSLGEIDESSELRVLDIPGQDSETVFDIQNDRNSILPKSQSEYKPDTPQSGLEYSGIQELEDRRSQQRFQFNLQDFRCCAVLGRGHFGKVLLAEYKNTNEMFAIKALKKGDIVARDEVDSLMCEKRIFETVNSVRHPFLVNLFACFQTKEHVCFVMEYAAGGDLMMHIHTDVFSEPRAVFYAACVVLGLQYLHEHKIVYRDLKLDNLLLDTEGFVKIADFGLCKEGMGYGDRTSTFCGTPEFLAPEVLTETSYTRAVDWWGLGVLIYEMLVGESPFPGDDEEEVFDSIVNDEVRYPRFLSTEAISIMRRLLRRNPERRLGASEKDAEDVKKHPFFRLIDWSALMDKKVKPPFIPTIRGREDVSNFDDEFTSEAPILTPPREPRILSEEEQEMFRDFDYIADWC
RAC-alpha serine/threonine-protein kinase, sequence (P31749 whole entry, canonical isoform): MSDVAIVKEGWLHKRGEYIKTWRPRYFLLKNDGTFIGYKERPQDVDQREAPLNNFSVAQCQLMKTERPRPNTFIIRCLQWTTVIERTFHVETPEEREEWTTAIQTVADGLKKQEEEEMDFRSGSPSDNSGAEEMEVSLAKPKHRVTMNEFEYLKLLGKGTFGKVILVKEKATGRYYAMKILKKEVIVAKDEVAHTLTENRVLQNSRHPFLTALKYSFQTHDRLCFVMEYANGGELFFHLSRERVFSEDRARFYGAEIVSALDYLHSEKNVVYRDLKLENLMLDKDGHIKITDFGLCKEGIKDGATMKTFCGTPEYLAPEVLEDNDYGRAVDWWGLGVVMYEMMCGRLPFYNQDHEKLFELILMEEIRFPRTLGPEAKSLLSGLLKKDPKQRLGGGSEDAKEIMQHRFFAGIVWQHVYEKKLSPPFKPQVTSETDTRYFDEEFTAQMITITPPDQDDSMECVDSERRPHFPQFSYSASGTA
Serine/threonine-protein kinase Nek2, sequence (P51955 whole entry): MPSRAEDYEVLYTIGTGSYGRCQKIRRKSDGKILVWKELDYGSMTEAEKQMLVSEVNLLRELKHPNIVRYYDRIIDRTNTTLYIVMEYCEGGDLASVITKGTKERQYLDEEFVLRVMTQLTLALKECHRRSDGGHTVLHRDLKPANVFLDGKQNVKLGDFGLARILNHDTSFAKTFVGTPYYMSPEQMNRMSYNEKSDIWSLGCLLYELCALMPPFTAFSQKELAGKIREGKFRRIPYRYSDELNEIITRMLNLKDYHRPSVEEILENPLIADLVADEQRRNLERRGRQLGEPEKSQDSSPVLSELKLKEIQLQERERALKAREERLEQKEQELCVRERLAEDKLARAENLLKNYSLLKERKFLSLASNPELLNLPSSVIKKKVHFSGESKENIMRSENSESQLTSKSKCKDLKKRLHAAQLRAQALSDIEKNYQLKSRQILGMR

- Ki [1]: > 7.94 µM (inactive)
- Ki [2]: > 5.01 µM (inactive)
- Ki [3]: > 3.98 µM (inactive)
- Ki [4]: > 7.94 µM (inactive)
- Ki [5]: > 5.01 µM (inactive)
- Ki (Aurora kinase B): > 6.31 µM (inactive)
- Ki [6]: > 7.94 µM (inactive)
- Ki [7]: > 6.31 µM (inactive)
- Ki [8]: > 7.94 µM (inactive)
- Ki [9]: > 5.01 µM (inactive)
- Ki [10]: > 7.94 µM (inactive)
- Ki [11]: > 7.94 µM (inactive)
- Ki [12]: > 10 µM (inactive)
- Ki [13]: > 7.94 µM (inactive)
- Ki [14]: > 10 µM (inactive)
- Ki [15]: > 10 µM (inactive)
- Ki (Insulin receptor): > 5.01 µM (inactive)
- Ki [16]: > 3.98 µM (inactive)
- Ki [17]: 2.51 µM (active)
- Ki [18]: > 6.31 µM (inactive)
- Ki [19]: > 7.94 µM (inactive)
- Ki [20]: > 5.01 µM (inactive)
- Ki [21]: > 7.94 µM (inactive)
- Ki [22]: > 5.01 µM (inactive)
- Ki [23]: > 3.98 µM (inactive)
- Ki [24]: > 7.94 µM (inactive)
- Ki [25]: > 6.31 µM (inactive)
- Ki [26]: > 7.94 µM (inactive)
- Ki [27]: > 6.31 µM (inactive)
- Ki [28]: > 5.01 µM (inactive)
- Ki [29]: > 7.94 µM (inactive)
- Ki [30]: > 6.31 µM (inactive)
- Ki [31]: > 7.94 µM (inactive)
- Ki [32]: > 5.01 µM (inactive)
- Ki [33]: 7.94 µM (active)
- Ki [34]: > 3.98 µM (inactive)
- Ki [35]: > 6.31 µM (inactive)
- Ki [36]: > 3.98 µM (inactive)
- Ki (Misshapen-like kinase 1): > 7.94 µM (inactive)
- Ki [37]: > 6.31 µM (inactive)
- Ki [38]: > 5.01 µM (inactive)
SMILES: NNc1cc(N2CCOCC2)nc(OCCc2ccccn2)n1
